# Tests used:
# Format in all cases: physicochemical
# [1] = Stability of 1.25 mM coelenterazine in 50% ethanol and 50% propylene glycol with or without 225 mM ATT, HPLC and Arrhenius plots; settings: 225 mM ATT, over time at different temperatures
# Experimental: The stability of coelenterazine in the presence and absence of ATT was measured over time at different temperatures. Specifically, 1.25 mM coelenterazine was present in a solution of 50% ethanol and 50% propylene glycol (i.e., the solution without ATT) or a solution of 50% ethanol and 50% propylene glycol with 225 mM ATT (i.e., the solution with ATT). These two solutions were incubated at −20° C., room temperature (RT), 40° C., or 60° C. and analyzed at 0 days, 1 day, 3 days, 7 days, 15 days, and 30 days.
# Following incubation, high performance liquid chromatography (HPLC) was utilized to identify the components of the respective solutions at each time point. Specifically, an Agilent 1100 HPLC instrument was used and equipped with a quaternary pump, thermostatted autosampler and column compartment, and a G1311B diode-array detector. The column used was a Synergi-MAX-RP (Phenomenex, Torrance, Calif.) 100 AÅ 50×4.6 2.5 μm. The run on the HPLC was a gradient run with 0.1% TFA in water and acetonitrile. Absorbance was measured at 262 nanometers (nm). Standards of coelenterazine and its known degradants were run to confirm both the retention time and absorbance trace. 5 μl of each solution was injected and the retention time of coelenterazine was 3.9 minutes at room temperature.
# The results of the HPLC analysis are shown below in Tables 1 and 2 and FIGS. 1A and 1B, in which the values are reported as relative peak area percentage at 262 nm (i.e., the lamba max of the substrate). […] In each of FIGS. 1A and 1B, diamond is 1.25 mM coelenterazine incubated over time with or without 225 mM ATT, respectively, at −20° C., triangle is 1.25 mM coelenterazine incubated over time with or without 225 mM ATT, respectively, at room temperature (RT), star is 1.25 mM coelenterazine incubated over time with or without 225 mM ATT, respectively, at 40° C., and cross is 1.25 mM coelenterazine incubated over time with or without 225 mM ATT, respectively, at 60° C.
# From the HPLC analysis, the half-life of coelenterazine in the presence of ATT at 40° C. and 60° C. was calculated to be 23 days and 5 days, respectively, while the half-life of coelenterazine in the absence of ATT at 40° C. and 60° C. was calculated to be 9.5 days and 2 days, respectively (see Table 3 below).
# Additionally, Arrhenius plots were generated for coelenterazine in the presence and absence of ATT to calculate the half-life of coelenterazine at various temperatures. The Arrhenius equation is as follows: […]
# In FIG. 7, the slope was −8636.59, the intercept was 24.1199, and R^2 was 0.9983.
# In FIG. 8, the slope was −7382.51, the intercept was 21.2598, and R^2 was 0.9570.
# [2] = Stability of 1.25 mM furimazine in DMSO with or without 225 mM ATT, HPLC; settings: room temperature, 40° C., and 60° C., in the presence of light
# Experimental: To further examine the stabilization of furimazine by ATT, stability of furimazine was measured at room temperature, 40°, and 60° C. in a different organic solvent, namely DMSO. This study was performed in the presence of light.
# Specifically, a 2× stock solution of ATT in DMSO was prepared, in which the final concentration of ATT was 64.4 mg/mL. A 2× stock solution of furimazine in DMSO was also prepared, in which the final concentration of furimazine was 0.95 mg/mL. In one vial, the 2× ATT stock solution was diluted 1:1 in the 2× furimazine stock solution to create a solution containing 225 mM ATT and 1.25 mM furimazine. In a second vial, furimazine was diluted 1:1 in DMSO to create a control solution without the additive ATT (i.e., “no additive furimazine” control) and containing 1.25 mM furimazine.
# The content of each vial was dispensed into separate, clear HPLC vials with insert and these HPLC vials were placed at room temperature (i.e., about 20° C.), 40° C., and 60° C. There was one HPLC vial per time point for each temperature.
# Stability was measured by HPLC with 5 μL injection and detection at 262 nm. In each chromatogram, the area percentage of furimazine was determined.
# [3] = Stability of 2.3 mM furimazine at 37° C. in the dark with or without 200 mM thionucleoside, luminescence with NANOLUC enzyme; settings: 50% propylene glycol:50% ethanol
# Experimental: Specifically, a stock solution of furimazine in 50% propylene glycol:50% ethanol (v/v) was prepared, in which the final concentration of furimazine by absorbance was 4.6 mM. The furimazine stock solution was then diluted 1:1 in 50% propylene glycol:50% ethanol (v/v) to create a control solution without the additives ATT, TAK-0014 and TAK-0002 (i.e., “no additive furimazine” control) and containing 2.3 mM furimazine. 400 mM stock solutions of ATT, TAK-0014 and TAK-0002 were prepared in 50% propylene glycol:50% ethanol (v/v). Each of the ATT, TAK-0014 and TAK-0002 stock solutions was then diluted 1:1 in the 4.6 mM furimazine stock solution to yield solutions containing 200 mM ATT, TAK-0014 or TAK-0002, and 2.3 mM furimazine.
# Each sample was separated into multiple amber tubes and incubated at 37° C. in a dark incubator (i.e., in the absence of light). Aliquots were taken from each sample at various time points and stored at −20° C. in the dark (i.e., in the absence of light) until all time points were collected.
# To measure luminescence in the aliquots, each aliquot was diluted 1:50 in buffer (NANOGLO buffer, Promega Corporation) to yield 46 μM furimazine. These diluted aliquots were further diluted 1:10 in buffer (NANOGLO buffer, Promega Corporation) to yield 4.6 μM furimazine. 504 of each dilution (i.e., the twice diluted (0.1) aliquots) was mixed with 504, of CO2-independent media+10% fetal bovine serum (FBS) and 0.4 ng/mL luminogenic enzyme (NANOLUC enzyme, Promega Corporation). Luminescence was measured on a luminometer (GLOMAX Multi Plus luminometer, Promega Corporation). Relative light units (RLUs) were normalized for each time point by the RLU value at the 0 days time point. The percent activity from the 0 days time point (i.e., t=0) was plotted against time (days) for each sample as shown in FIG. 15A. In FIG. 15A, B-ATT denoted TAK-0002 and E-ATT denoted TAK-0014.
# Error in Table 15 was the standard error from a regression calculation and Fz denoted furimazine, B-ATT denoted TAK-0002, and E-ATT denoted TAK-0014.
smiles,measurement,setting,value
"Cc1n[nH]c(=S)[nH]c1=O [ATT, 6-methyl-3-thioxo-3,4-dihydro-1,2,4-triazin-5(2H)-one]",stabilization of coelenterazine against decomposition,[1],stabilized coelenterazine against decomposition over time at different temperatures
same,stabilization of furimazine in DMSO against decomposition,[2],stabilized furimazine in DMSO against decomposition at different temperatures
same,stabilization of furimazine against decomposition in the absence of light,[3],stabilized furimazine against decomposition in the absence of light
